Series [1] concerns Botrytis cinerea. Nature of the series: In vivo preventive test on Botrytis cinerea (beans). The following applies: Table L, 500 ppm of active ingredient, lesion size 2 days after inoculation. As to the method: Solvent: 24.5 parts by weight of acetone • 24.5 parts by weight of N,N-dimethylacetamide
Emulsifier: 1 part by weight of alkylaryl polyglycol ether
To produce a suitable preparation of active compound, 1 part by weight of active compound is mixed with the stated amounts of solvent and emulsifier, and the concentrate is diluted with water to the desired concentration.
To test for preventive activity, young plants are sprayed with the preparation of active compound. After the spray coating has dried on, 2 small pieces of agar covered with growth of Botrytis cinerea are placed on each leaf. The inoculated plants are placed in a darkened chamber at 20° C. and a relative atmospheric humidity of 100%.
2 days after the inoculation, the size of the lesions on the leaves is evaluated. 0% means an efficacy which corresponds to that of the untreated control, while an efficacy of 100% means that no disease is observed.

The test system of series [2] is Sphaerotheca fuliginea. The series can be described thus: In vivo preventive test on Sphaerotheca fuliginea (cucumber). Conditions: 500 ppm of active ingredient, evaluated 7 days after inoculation. The method in brief: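 Young cucumber plants sprayed with compound (in DMF with alkylarylpolyglycolether emulsifier, diluted in water) at the stated application rate. Inoculated one day later with aqueous Sphaerotheca fuliginea spore suspension. Plants then held in greenhouse at approximately 23° C and approximately 70% relative humidity.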

Series [3] relates to Pyrenophora teres. Nature of the series: In vivo preventive test on Pyrenophora teres (barley). The following applies: 500 ppm of active ingredient, evaluated 7-9 days after inoculation. The gist of the method: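 Preventive test: young barley plants received a water-diluted spray of compound formulated with DMF solvent plus alkylaryl polyglycol ether emulsifier, at the stated rate. Inoculation with an aqueous spore suspension of Pyrenophora teres followed one day after spraying.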

In series [4] the test system is Alternaria solani. The series can be described thus: In vivo preventive test on Alternaria solani (tomato). The following applies: 500 ppm of active ingredient, evaluated 7 days after inoculation. The gist of the method: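 Preventive set-up: Alternaria solani spores, as aqueous suspension, applied to young plants one day after spraying. Spray contained active compound formulated with N,N-dimethylformamide and emulsifier, water-diluted to the desired application rate.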

Series [5] is described as follows: log P by HPLC on reversed-phase column (EEC Directive 79/831 Annex V.A8). The series is classed as physicochemical. On the procedure:
In table 1, the log P values were determined in accordance with EEC Directive 79/831 Annex V.A8 by HPLC (High Performance Liquid Chromatography) on a reversed-phase column (C18), using the method described below: Temperature: 40° C.; […]

Series [6] deals with Fusarium nivale (var. majus). The series can be described thus: In vivo preventive test on Fusarium nivale (wheat). Conditions: 500 ppm of active ingredient, evaluated 5 days after inoculation. As to the method:
(§1) Solvent: 49 parts by weight of N,N-dimethylacetamide Emulsifier: 1 part by weight of alkylaryl polyglycol ether To produce a suitable preparation of active compound, 1 part by weight of active compound or active compound combination is mixed with the stated amounts of solvent and emulsifier, and the concentrate is diluted with water to the desired concentration. To test for preventive activity, young plants are sprayed with the preparation of active compound or active compound combination at the stated rate of application. After the spray coating has been dried, the plants are slightly injured by using a sandblast and afterwards they are sprayed with a conidia suspension of Fusarium nivale (var. majus).

Series [7] deals with Septoria tritici. Nature of the series: In vivo preventive test on Septoria tritici (wheat). Conditions: 500 ppm of active ingredient, evaluated 21 days after inoculation. On the procedure:
as §1, with “are” for “are slightly injured by using a sandblast and afterwards they are”, “spore” for “conidia”, “Septoria tritici.” for “Fusarium nivale (var. majus).”

In series [8] the test system is Venturia inaequalis. Nature of the series: In vivo preventive test on Venturia inaequalis (apple scab). The following applies: 100 ppm of active ingredient, evaluated 10 days after inoculation. As to the method:
(§2) Solvent: 24.5 parts by weight of acetone • 24.5 parts by weight of N,N-dimethylacetamide Emulsifier: 1 part by weight of alkylaryl polyglycol ether To produce a suitable preparation of active compound, 1 part by weight of active compound is mixed with the stated amounts of solvent and emulsifier, and the concentrate is diluted with water to the desired concentration. To test for preventive activity, young plants are sprayed with the preparation of active compound at the stated rate of application.

The subject of series [9] is Leptosphaeria nodorum. Nature of the series: In vivo preventive test on Leptosphaeria nodorum (wheat). Conditions: 500 ppm of active ingredient, evaluated 7-9 days after inoculation. The method in brief: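 Plants were inoculated with aqueous L. nodorum spores one day after a protective spray. The spray contained the compound at the stated rate, as a water-diluted concentrate in N,N-dimethylacetamide plus alkylaryl polyglycol ether emulsifier.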

Series [10] relates to Blumeria graminis fsp. hordei. The series can be described thus: In vivo preventive test on Blumeria graminis (barley). The following applies: 500 ppm of active ingredient, evaluated 7 days after inoculation. On the procedure: as §1, with “dusted” for “slightly injured by using a sandblast and afterwards they are sprayed”, “spores” for “a conidia suspension”, “Blumeria graminis fsp. hordei.” for “Fusarium nivale (var. majus).”

In series [11] the test system is Uromyces appendiculatus. Nature of the series: In vivo preventive test on Uromyces appendiculatus (beans). The following applies: 100 ppm of active ingredient, evaluated 10 days after inoculation. On the procedure:
as §2

Series [12] has as its system Aspergillus parasiticus. The series can be described thus: microbe, parasite or virus in culture. The series is classed as cell-based.
Series [13] deals with aflatoxines produced by Aspergillus parasiticus. Nature of the series: microbe, parasite or virus in culture. It counts as cell-based.
For series [14], the system named is Puccinia triticina. Nature of the series: In vivo preventive test on Puccinia triticina (wheat). Conditions: Table K, 500 ppm of active ingredient, evaluated 8 days after inoculation.
The test system of series [15] is Cochliobolus miyabeanus. The series can be described thus: In vivo protective test on Cochliobolus miyabeanus (rice). The following applies: Table M, 250 ppm of active ingredient, evaluated 4 days after inoculation.
In series [16] the test system is Phakopsora pachyrhizi. The series can be described thus: In vivo protective test on Phakopsora pachyrhizi (soybeans). The following applies: Table N, 250 ppm of active ingredient, evaluated 11 days after inoculation.

Structures are written as SMILES. Like-named read-outs stand apart in the source and are kept apart here.

The results in this text go back to US8999956B2, “N-[(het)arylalkyl)] pyrazole(thio)carboxamides and their heterosubstituted analogues” (Bayer Intellectual Property GmbH, priority 2010, dated 2015).

As usually defined, the chromatographic logP is a lipophilicity value derived from retention on a column. A higher chromatographic logP goes with a more lipophilic compound.

For `CC(N(C(=O)c1c(C(F)F)nn(C)c1F)C1CC1)C(C)(C)Cc1ccccc1` (centres unmarked) [Example 9], the Efficacy in series [1] is listed as 100%; in series [2], 95%; in series [3] it was 100%; in [4] it was 90%; in [6], 100%; in series [7] it was 100%. For the same molecule, the Efficacy is 100% in series [8], 100% in series [9], 100% in series [10] and 94% in [11]. In [5], this molecule registered a logP of 4.06.

In the case of `CC(CC(C)(C)C)C1CCCCC1NC(=O)c1c(C(F)F)nn(C)c1Cl` (centres unmarked) [Example 359], the “% Inhibition of fungal growth at 50 μM” value in [12] was 90%. The Efficacy was 100% in series [2]; 100% in [3]; 95% in series [4]; 100% in series [14]; 100% in [6]; 100% in series [7]. Moreover, the Efficacy in [8] was determined as 99%; in series [10], 94%; in series [11], 100%. For the same molecule, the “% Inhibition of Aflatoxin at 50 μM” value in series [13] stood at 100%. Besides, in series [5], the logP was determined as 5.28.

Consider `CC(C)CC(C)C1CCCCC1NC(=O)c1c(C(F)F)nn(C)c1Cl` (single isomer, unassigned) [Example 335], for which the “% Inhibition of fungal growth at 50 μM” value in series [12] (50 µM) is recorded as 84%. The “% Inhibition of Aflatoxin at 50 μM” value in series [13] turned out to be 100%. The logP in series [5] is given as 4.96 isomer B. Moreover, the Efficacy came out at 100% in [14]; 86% in [6]; 100% in [8]; 70% in series [10]; 100% in [11].

For the molecule `Cn1nc(C(F)F)c(C(=O)NC2CCCC(CCC(C)(C)C)C2)c1F` (centres unmarked) [Example 324, 3-(difluoromethyl)-N-[3-(3,3-dimethylbutyl)cyclohexyl]-5-fluoro-1-methyl-1H-pyrazole-4-carboxamide], the Efficacy is reported as 94% in series [3], 90% in [4], 100% in [6] and 97% in series [15]. For the same molecule, the chromatographic logP in [5] (log P) and in series [5] (logP) was 4.8 each time. Moreover, the pest or weed control at 500 ppm in series [14] (Puccinia triticina, 192 h, read-out: Efficacy) was found to be 100%.

In series [5], `Cn1nc(C(F)F)c(C(=O)NC2CCCCC2CCC(C)(C)C)c1Cl` (single isomer, unassigned) [Example 354] yielded a logP of 4.73 isomer A. The Efficacy in [14], in series [6], in [8], in [10] and in series [11] was 100% each time.

As for `Cn1nc(C(F)F)c(C(=O)NC2CCCCC2CCC(C)(C)C)c1Cl` (single isomer, unassigned) [Example 355], the logP in series [5] is listed as 4.95 isomer B. Further, the Efficacy in [6] is on record as 100%; in series [8], 99%; in [10] it was 80%; in [11], 100%.

Turning to `CC(CC(C)(C)C)C1CCCCC1NC(=O)c1c(C(F)F)nn(C)c1F` (single isomer, unassigned) [Example 360], the “% Inhibition of fungal growth at 50 μM” value in [12] (50 µM) is reported as 96%. Also, the Efficacy is recorded as 100% in series [2]; 95% in [3]; 95% in [4]; 100% in [14]; 86% in series [6]; 90% in series [7]. In addition, the Efficacy is 100% in [8], 100% in [10] and 94% in series [15]. Besides, in [13], the “% Inhibition of Aflatoxin at 50 μM” value is recorded as 100%. The same molecule returned a logP in series [5] of 4.85 isomer A.

With `CCCCC1CCCCC1NC(=O)c1c(C(F)F)nn(C)c1Cl` (centres unmarked) [Example 331], the “% Inhibition of fungal growth at 50 μM” value in series [12] was determined as 79%. Further, the Efficacy in series [2] is reported as 100%; in series [3] it was 95%; in series [4] it was 100%; in [14], 90%; in series [6], 100%; in series [7], 100%. Moreover, the Efficacy in [8], in series [10] and in series [11] was 100% each time. Moreover, the “% Inhibition of Aflatoxin at 50 μM” value in [13] amounted to 99%. In addition, in [5], the logP came out at 4.10.

On to `CC(CCc1ccc(Cl)cc1Cl)N(C(=O)c1c(C(F)F)nn(C)c1F)C1CC1` (centres unmarked) [Example 184], for which the “% Inhibition of fungal growth at 50 μM” value in [12] is listed as 100%. The Efficacy in series [2] is on record as 100%; in [3] it was 100%; in series [4] it was 90%; in series [14], 90%; in series [6], 100%; in series [7] it was 100%. The Efficacy in series [8] was 100%; in series [9], 95%; in series [10] it was 100%; in series [11] it was 100%. The “% Inhibition of Aflatoxin at 50 μM” value in series [13] was 100%. Moreover, in series [5], the logP is 4.56.

As to `CON(C(=O)c1c(C(F)F)nn(C)c1Cl)C(C)CCc1c(Cl)cc(Cl)cc1Cl` (centres unmarked) [Example 218], the Efficacy turned out to be 100% in series [3]; 90% in series [4]; 100% in series [6]; 86% in series [7]; 100% in [8]; 95% in series [11]. This molecule returned a logP in series [5] of 4.89.

As for `Cn1nc(C(F)F)c(C(=O)N(CC2CCCCC2c2ccc(Cl)cc2Cl)C2CC2)c1F` (centres unmarked) [Example 242], the Efficacy in series [1] came out at 95%; in series [2], 100%; in series [16], 99%; in [3] it was 100%; in [4], 100%; in series [14], 100%. The Efficacy in series [8] and in series [11] was 100% throughout. Further, the “% Inhibition of fungal growth at 50 μM” value in series [12] turned out to be 100%. Moreover, the “% Inhibition of Aflatoxin at 50 μM” value in series [13] amounted to 100%. The logP in series [5] amounted to 5.31.
